± gives the standard deviation of the averaged measurements.
Tests used:
Assay in all cases: CTG-3D luminescence at 96 h relative to day-0 seeding control (ratio to day 0); higher = more growth / less cytotoxicity; PDxO 3D drug screen (set 2), 96 h, CTG-3D normalised to day-0 seeding control.
[1] = tested on: HCI-016 (organoid from a triple-negative breast cancer xenograft)
[2] = tested on: HCI-011.E2 (organoid from an ER-positive breast cancer xenograft)
[3] = tested on: HCI-002 (organoid from a triple-negative breast cancer xenograft)
[4] = tested on: HCI-005.E2 (organoid from a breast cancer xenograft with a HER2-positive history)
[5] = tested on: HCI-024 (organoid from a breast cancer xenograft)
[6] = tested on: HCI-003.E2 (organoid from an ER-positive breast cancer xenograft)

CS(=O)(=O)CCNCc1ccc(-c2ccc3ncnc(Nc4ccc(OCc5cccc(F)c5)c(Cl)c4)c3c2)o1 [lapatinib]
CTG-3D luminescence at 96 h
Details	12.5 pM	0.00025 µM	0.005 µM	0.1 µM	1 µM	10 µM	100 µM	625 fM
[1], days in culture: 305	2.19	2.44	2.88	3.72	1.92	0.286	-0.00685	4
[1], days in culture: 327	1.07	0.931	1.47	1.74	1.12	0.284	0.000753	2.05
[1], days in culture: 341	2.29	1.62	2.18	1.86	1.6	0.474	-0.00181	2.42
[1], days in culture: 397	1.92	2.19	2.02	2.38	1.32	0.254	-0.000202	2.47
[2], days in culture: 74	2.75	2.14	2.07	2.34	1.66	0.607	-0.00505	2.76
[3], days in culture: 127	2.38	2.9	2.7	3.41	2.39	1.07	0.00596	2.75
[3], days in culture: 155	5.69	4.91	5.49	7.04	4.12	0.801	-0.00284	4.59
[3], days in culture: 168	3.63	3.77	3.93	3.54	3.53	1.01	-0.0013	3.8
[5], days in culture: 202	1.02	1.45	1.36	0.838	0.917	0.832	0.0105	1.54
[5], days in culture: 231	0.876	1.18	1.07	1.57	1.44	0.512	0.00851	1.39
[5], days in culture: 254	1.47	0.96	1.64	2.25	1.02	0.584	0.0095	1.76

CTG-3D luminescence at 96 h
Details	12.5 pM	0.00025 µM	0.005 µM	0.1 µM	1 µM	10 µM	100 µM	625 fM
[2]	1.6 ± 0.27	1.63 ± 0.19	1.26 ± 0.29	1.72 ± 0.14	1.57 ± 0.081	0.982 ± 0.17	0.0218 ± 0.021	2.23 ± 0.73
[4]	1.84 ± 0.73	2.04 ± 0.56	2.54 ± 0.79	2.55 ± 1.2	2.58 ± 0.58	0.551 ± 0.064	0.00117 ± 0.0028	2.11 ± 0.61
[6]	2.53 ± 0.56	2.41 ± 0.69	2.48 ± 0.9	2.27 ± 0.78	1.77 ± 0.3	0.0655 ± 0.011	0.000467 ± 0.00016	2.95 ± 1.1
